This note sets out measurements from patent US4895834A, “Renin inhibitors III” (Warner-Lambert Company, priority 1987, dated 1990).

For orientation: IC50 means the concentration that gives 50% inhibition.

The first test has as its system renin maintained blood pressure (Hog renin infused). As to the kind of experiment: lowering renin maintained blood pressure in the anesthetized, vagotomized, ganglionic-blocked rat (hog renin infused). In kind it is in vivo. As to conditions: 1 mg/kg IV. The protocol:
The effectiveness of the aforementioned compounds in vivo is determined by their effect on lowering renin maintained blood pressure in the anesthetized, vagotomized, ganglionic-blocked rat.
After the blood pressure has stabilized, 1.25 mg/kg IV mecamylamine is added to produce ganglionic blockade. Hog renin is then infused to bring the blood pressure to a level observed before vagotomy and ganglionic blockade. Test compound is then administered IV and the drop in blood pressure is noted.
The compound was administered at as dose of 1 mg/kg.
For the compound `CC(C)C[C@H](NC(=O)C[C@H](O)[C@H](CC(C)C)NC(=O)[C@H](Cc1c[nH]cn1)NC(=O)C(Cc1cccc2ccccc12)Cc1cccc2ccccc12)C(=O)NCc1ccccc1` [Example 1, DNMA-HIS-STA-LEU-NHCH2 Ph], the “Percent Decrease of Blood Pressure” value came out at 65%.

A further test concerns the target T1, renin (Homo sapiens, UniProt P00797).
T1 sequence (P00797 67-406): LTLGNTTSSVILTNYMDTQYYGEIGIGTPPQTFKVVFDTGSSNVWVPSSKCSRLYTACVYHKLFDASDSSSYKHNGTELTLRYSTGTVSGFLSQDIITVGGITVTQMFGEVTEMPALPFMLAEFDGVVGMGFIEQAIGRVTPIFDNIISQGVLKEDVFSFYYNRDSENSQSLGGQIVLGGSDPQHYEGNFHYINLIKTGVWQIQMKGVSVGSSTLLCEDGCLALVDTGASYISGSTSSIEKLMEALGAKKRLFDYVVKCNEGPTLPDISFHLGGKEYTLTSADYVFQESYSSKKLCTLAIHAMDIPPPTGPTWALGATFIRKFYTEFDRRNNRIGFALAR
Nature of the test: in vitro renin inhibitory activity, radioimmunoassay for angiotensin I. In kind it is biochemical. As to conditions: molar concentration causing 50% inhibition of renin activity; renin incubated two hours at 37° with angiotensinogen. The protocol:
The effectiveness of the aforementioned compound is determined by a test for in vitro renin inhibitory activity. This activity is determined by a standard radioimmunoassay for angiotensin I. In this assay the enzyme, renin, incubated for two hours at 37° in the presence of a substrate, angiotensinogen, generates the product, angiotensin I. Test compounds are added to the incubation mixture. Relative activity is reported as the IC50, which is the molar concentration of test compound causing a 50% inhibition of the renin activity.
For `CC(C)C[C@H](NC(=O)[C@H](Cc1c[nH]cn1)NC(=O)C(Cc1cccc2ccccc12)Cc1cccc2ccccc12)[C@@H](O)CC(=O)NCC(O)CS(=O)(=O)C(C)C` (some centres unmarked) [Example 4, DNMA-HIS-STA-NHCH2 CH(OH)CH2 SO2 CH(CH3)2], the IC50 came out at 82 nM.

In the case of `CC[C@H](C)CNC(=O)C[C@H](O)[C@H](CC(C)C)NC(=O)[C@H](Cc1c[nH]cn1)NC(=O)C(Cc1cccc2ccccc12)C(=O)OC(C)(C)C` (some centres unmarked) [Example 2], half-maximal inhibition (IC50) was put at 560 nM. Still for that read-out and setting: to `CC(C)C[C@H](NC(=O)C[C@H](O)[C@H](CC(C)C)NC(=O)[C@H](Cc1c[nH]cn1)NC(=O)C(Cc1ccccc1)SCc1ccccc1)C(=O)NCc1ccccc1` (some centres unmarked) [Example 11] belongs 2200 nM. In turn, `CC(C)C[C@H](NC(=O)C[C@H](O)[C@H](CC1CCCCC1)NC(=O)[C@H](CC(=O)O)NC(=O)C(Cc1cccc2ccccc12)Cc1cccc2ccccc12)C(=O)NCc1ccccc1` [Example 17, DNMA-ASP-CYSTA-LEU-NHCH2 Ph] displayed an IC50 of 980 nM.

Regarding `CC(C)C[C@H](NC(=O)[C@H](Cc1c[nH]cn1)NC(=O)C(Cc1cccc2ccccc12)Cc1cccc2ccccc12)[C@@H](O)CC(=O)NCC(O)CSC(C)C` (some centres unmarked) [Example 3, DNMA-HIS-STA-NHCH2 CH(OH)CH2 SCH(CH3)2], the IC50 came out at 220 nM. Compound `CC(C)C[C@H](NC(=O)C[C@H](O)[C@H](CC(C)C)NC(=O)[C@H](Cc1cnc[nH]1)N(C)C(=O)C(Cc1cccc2ccccc12)Cc1cccc2ccccc12)C(=O)NCc1ccccc1` [Example 20, DNMA-(N-MeHIS)-STA-LEU-NHCH2 Ph] returned an IC50 of 4100 nM. Regarding `CC(C)C[C@H](NC(=O)[C@H](Cc1c[nH]cn1)NC(=O)C(Cc1cccc2ccccc12)Cc1cccc2ccccc12)[C@@H](O)CC(=O)NCc1cccc(CNC(=O)OCc2ccccc2)c1` [Example 22], the IC50 worked out at 4000 nM.
